± gives the standard deviation of the averaged measurements.
What was measured:
[1] = compound: COc1cc2ncnc(Nc3ccc(F)c(Cl)c3)c2cc1NC(=O)/C=C/CN1CCCCC1; assay: surviving fraction relative to DMSO-only wells; higher = less growth inhibition; details: exposure time: 5 days
Outline: (§1)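 Surviving fraction is CellTiter-Glo luminescence divided by the median of wells given DMSO only. For this, log-phase tumour cell lines went into 384-well plates at 250–500 cells per well and, 24 hours later, into five days of continuous inhibitor exposure at 0.5, 1, 5, 10, 50, 100, 500 and 1000 nM. Lines were screened three times and retained only if replicate Pearson r >0.7 and median Z' >0.3.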

OLAPARIB = compound: O=C(c1cc(Cc2n[nH]c(=O)c3ccccc23)ccc1F)N1CCN(C(=O)C2CC2)CC1 [OLAPARIB]; assay: as above; details: exposure time: 5 days
Outline: as §1

| Test System | surviving fraction ([1]; 0.5 nM) | surviving fraction ([1]; 1 nM) | surviving fraction ([1]; 5 nM) | surviving fraction ([1]; 10 nM) | surviving fraction ([1]; 50 nM) | surviving fraction ([1]; 100 nM) | surviving fraction ([1]; 500 nM) | surviving fraction ([1]; 1000 nM) | surviving fraction (OLAPARIB; 0.5 nM) | surviving fraction (OLAPARIB; 1 nM) | surviving fraction (OLAPARIB; 5 nM) | surviving fraction (OLAPARIB; 10 nM) | surviving fraction (OLAPARIB; 50 nM) | surviving fraction (OLAPARIB; 100 nM) | surviving fraction (OLAPARIB; 500 nM) | surviving fraction (OLAPARIB; 1000 nM) |
| --- | --- | --- | --- | --- | --- | --- | --- | --- | --- | --- | --- | --- | --- | --- | --- | --- |
| OS25HAL BONE | 0.995 ± 0.013 | 0.972 ± 0.011 | 1.02 ± 0.032 | 0.981 ± 0.0017 | 1.05 ± 0.044 | 1.07 ± 0.015 | 1.012 ± 0.0087 | 0.964 ± 0.011 | 1.01 ± 0.015 | 1.01 ± 0.033 | 1.04 ± 0.015 | 1.02 ± 0.025 | 1.05 ± 0.019 | 1.01 ± 0.017 | 1.005 ± 0.0085 | 0.99 ± 0.012 |
| OSHN BONE | 1.07 ± 0.034 | 1.06 ± 0.044 | 1.08 ± 0.033 | 1.05 ± 0.035 | 1.1 ± 0.037 | 1.1 ± 0.027 | 1.06 ± 0.047 | 1.029 ± 0.0075 | 1.06 ± 0.021 | 1.05 ± 0.023 | 1.07 ± 0.032 | 1.04 ± 0.023 | 1.003 ± 0.01 | 0.984 ± 0.011 | 0.984 ± 0.017 | 0.917 ± 0.013 |
| PCI30 HEADNECK | 0.985 ± 0.029 | 1.01 ± 0.087 | 0.649 ± 0.07 | 0.551 ± 0.078 | 0.393 ± 0.01 | 0.392 ± 0.013 | 0.194 ± 0.035 | 0.0737 ± 0.0085 | 0.973 ± 0.043 | 0.969 ± 0.12 | 1.03 ± 0.016 | 1.02 ± 0.095 | 0.98 ± 0.069 | 0.92 ± 0.052 | 0.856 ± 0.057 | 0.744 ± 0.05 |
| RDES SOFT TISSUE | 1.27 ± 0.17 | 1.28 ± 0.086 | 1.28 ± 0.059 | 1.33 ± 0.18 | 1.28 ± 0.2 | 1.23 ± 0.13 | 1.23 ± 0.15 | 1.22 ± 0.1 | 1.16 ± 0.19 | 1.11 ± 0.23 | 1.14 ± 0.15 | 0.966 ± 0.14 | 0.85 ± 0.14 | 0.8 ± 0.093 | 1.01 ± 0.065 | 1.41 ± 0.088 |
| S68 BREAST | 0.768 ± 0.15 | 1.01 ± 0.15 | 1.03 ± 0.27 | 0.764 ± 0.12 | 0.701 ± 0.085 | 0.667 ± 0.14 | 0.603 ± 0.033 | 0.256 ± 0.024 | 0.986 ± 0.17 | 0.927 ± 0.014 | 0.925 ± 0.23 | 0.896 ± 0.16 | 0.941 ± 0.084 | 0.771 ± 0.26 | 0.715 ± 0.15 | 0.612 ± 0.097 |
| SAOS2 BONE | 1.17 ± 0.02 | 1.14 ± 0.017 | 1.14 ± 0.038 | 1.13 ± 0.07 | 1.1 ± 0.062 | 1.13 ± 0.064 | 0.762 ± 0.044 | 0.513 ± 0.028 | 1.078 ± 0.0052 | 1.02 ± 0.022 | 1.16 ± 0.072 | 1.07 ± 0.042 | 0.882 ± 0.021 | 0.8217 ± 0.0046 | 0.753 ± 0.013 | 0.692 ± 0.027 |
| SCC003 HEADNECK | 1.01 ± 0.031 | 0.95 ± 0.19 | 0.845 ± 0.11 | 0.861 ± 0.082 | 0.554 ± 0.072 | 0.535 ± 0.079 | 0.405 ± 0.053 | 0.356 ± 0.031 | 1.14 ± 0.066 | 1.03 ± 0.079 | 1.01 ± 0.072 | 1.09 ± 0.11 | 1.13 ± 0.052 | 1 ± 0.046 | 0.974 ± 0.12 | 0.881 ± 0.083 |
| SCC36 HEADNECK | 0.84 ± 0.054 | 0.889 ± 0.024 | 0.656 ± 0.059 | 0.618 ± 0.0085 | 0.432 ± 0.014 | 0.424 ± 0.057 | 0.338 ± 0.022 | 0.235 ± 0.013 | 1 ± 0.045 | 0.993 ± 0.12 | 1.06 ± 0.018 | 0.948 ± 0.12 | 0.837 ± 0.1 | 0.697 ± 0.027 | 0.705 ± 0.066 | 0.596 ± 0.066 |
| SCC47 HEADNECK | 0.927 ± 0.031 | 0.976 ± 0.041 | 0.804 ± 0.1 | 0.745 ± 0.028 | 0.625 ± 0.026 | 0.59 ± 0.025 | 0.512 ± 0.031 | 0.375 ± 0.039 | 1.1 ± 0.09 | 0.994 ± 0.062 | 1.14 ± 0.042 | 1.07 ± 0.086 | 1.08 ± 0.098 | 0.989 ± 0.079 | 0.977 ± 0.043 | 1.03 ± 0.11 |
| SCC90 HEADNECK | 0.948 ± 0.041 | 0.938 ± 0.039 | 0.647 ± 0.1 | 0.608 ± 0.018 | 0.388 ± 0.017 | 0.4 ± 0.024 | 0.377 ± 0.066 | 0.294 ± 0.023 | 1.07 ± 0.066 | 1.04 ± 0.093 | 1.06 ± 0.062 | 1.1 ± 0.063 | 0.994 ± 0.037 | 0.942 ± 0.14 | 0.968 ± 0.087 | 0.931 ± 0.091 |

Source: the supplement of paper PMC6045584
